Laboratory results reported in patent US20100268174A1, “COMBINATION OF ALCOHOL LOCK AND GENTIAN VIOLET CATHETER” (priority 2007, published 2010).

What was measured:
[1] = system: most microorganisms; settings: Sissons et al. 1996; cited from earlier work
[2] = system: all organisms of interest
Procedure: Dilutions were prepared in Cationic Adjusted Mueller Hinton Broth (CAMHB). All tests were performed in microtiter plates with a total test volume of 100 μL, including diluted antimicrobial agent and inoculum. Concentrations of antimicrobial agents were prepared at 2× concentration, and 50 μL was added to each well of a microtiter plate, to which 50 μL of inoculum of the test organism was added to give the target test concentration.
Cells were subsequently centrifuged, and resuspended twice in phosphate buffered saline. The population of this bacterial suspension was determined by reading optical density at 670 nm. […] Initial concentrations were verified using the Miles and Misra drop count method. […] Incubation was at 37° C. for 16 to 20 hours.
To determine MBC values, 50 μl was removed from each well showing inhibition of growth (MIC and greater). Solutions from these inhibitory concentrations of antimicrobial agent were diluted in CAMHB to concentrations where they would no longer inhibit the growth of the test organism. Recovery counts were obtained by plating aliquots of the diluted material onto TSA plate containing 5% sheep's blood, and incubating 24 hours at 37° C.

[3] = Temperature effect (196-219 °C) on degradation of gentian violet compounded in Carbothane resin (HPLC); format: physicochemical; settings: compounded Carbothane resin with 0.5% GV
Procedure: Gentian violet contents from compounded resin and tube sample were analyzed via HPLC method. HPLC analysis on GV loaded resin or compounded pellets was performed by weighing 0.1-0.3 g, which is roughly equivalent to 10-20 pellets (depending on the weight of the raw material used) of each formulation (n=3) and digesting in THF (5 mL or 7.5 mL) in 50 mL centrifuge tubes. Samples were allowed to sit for 45 minutes, and then vortexed until all of the polymer dissolved. An equal amount of deionized (DI) water was then added (5 or 7.5 mL), and the samples were again vortexed for 5 minutes, and then centrifuged for 10 minutes. A portion of each sample was then added to an HPLC vial and capped prior to HPLC analysis. HPLC analysis was performed on an Agilent 1200 Series LC using an Agilent Eclipse XDB-CN 5μ 4.6×150 mm column with the corresponding guard column. A gradient program was run using two solvent reservoirs: 5 g of gentian violet (Sigma-Aldrich, St. […] Louis, Mo.). 1000 g of Carbothane®-3585A-B20 (Noveon, Cleveland, Ohio) resin was added in to the gentian violet/ethanol solution. The ethanol solvent was evaporated off in a chemical fume hood overnight at ambient conditions. The gentian violet coated pellets were then dried at 50° C. and 30 inches Hg for 24 hrs prior to compounding. […] The melt temperatures from each run are recorded in Table 6. […]

[4] = Temperature effect (high temperatures) on degradation of gentian violet compounded in Carbothane resin (HPLC); format: physicochemical; settings: drop in extractable GV content
Procedure: Gentian violet contents from compounded resin and tube sample were analyzed via HPLC method. HPLC analysis on GV loaded resin or compounded pellets was performed by weighing 0.1-0.3 g, which is roughly equivalent to 10-20 pellets (depending on the weight of the raw material used) of each formulation (n=3) and digesting in THF (5 mL or 7.5 mL) in 50 mL centrifuge tubes. Samples were allowed to sit for 45 minutes, and then vortexed until all of the polymer dissolved. An equal amount of deionized (DI) water was then added (5 or 7.5 mL), and the samples were again vortexed for 5 minutes, and then centrifuged for 10 minutes. A portion of each sample was then added to an HPLC vial and capped prior to HPLC analysis. HPLC analysis was performed on an Agilent 1200 Series LC using an Agilent Eclipse XDB-CN 5μ 4.6×150 mm column with the corresponding guard column. A gradient program was run using two solvent reservoirs: The sample preparation for loading GV on resin pellets is similar to EXAMPLE V. Gentian violet was purchased from (Sigma-Aldrich, St. Louis, Mo.) and Carbothane®-3585A-B20 (Noveon, Cleveland, Ohio) was used. The heating profile was varied for each run.

[5] = format: physicochemical
Procedure: One of the surprising findings about the temperature effects is that certain classes of polyurethanes are processable below the degradation temperature and other classes are not.
Compounding Conditions for Stable Gentian Violet:
Barrel Temperatures: • Zone 1-5=170° C. • Zone 6=175° C.,
Compounding Temperature for Degraded Gentian Violet:
Compounding was performed with Sigma Aldrich ACS grade gentian violet, lot 016K3691. HPLC analysis was performed by cutting and measuring 1 cm segments of each formulation (n=3) using the method described in Examples II and III.
The chromatograms show the stable gentian violet followed by the degraded gentian violet, at 588 nm, 253 nm, and 280 nm. The degradation peaks from the 217° C. sample are evident as the new peaks at 253 and 280 nm wavelengths. The chromatogram of the low processing temperature was identical to that of the Gentian Violet raw material.

processing temperature up to which GV content is essentially unchanged [3] | onset of degradation (processing temperature) ([3]; worse at 219° C.) | temperature above which there is significant degradation of the GV [4] | processing temperature at which degradation starts [5] | processing temperature at which extruded gentian violet was found to degrade [5] | processing temperature that does not degrade gentian violet [5] | SMILES | concentration generally considered bactericidal [1] | concentration that inhibits the growth of most microorganisms [1] | concentration at which the solution will not inhibit microbial growth [2] | subinhibitory concentration ([2]; for all organisms of interest) | ethanol lock concentration cidal towards most commonly encountered infectious pathogens ([2]; suggested by the Table 1 results)
– | – | – | – | – | – | CCO [ethanol] | ≥ 40% | 10% | below 7% | 5% | above 25%
≤ 206 °C | 209 °C | above 220 °C | about 209 °C | 217 °C | under 207 °C | CN(C)c1ccc(C(=C2C=CC(=[N+](C)C)C=C2)c2ccc(N(C)C)cc2)cc1 [gentian violet] | – | – | – | – | –
